Experimental data published in patent US20250353891A1 (MEDIMMUNE LIMITED, priority 2022, published 2025).
Starred links: 1 amine or outer side, 2 acyl side, 3 side chain; linkers in the order of their positions; H or OH if unused. Non-standard residues stand in square brackets, D forms with d. Residues, ends and D or L forms follow the SMILES beside them. Groups on a side chain read outwards from the residue. *: point of attachment. X1 = CC(C)(CCNC(=N)N)[C@H](N[*:1])C(=O)[*:2]; C18 diacid = O=C(O)CCCCCCCCCCCCCCCCC(=O)*; γGlu = O=C(O)[C@H](CCC(=O)[*:2])N[*:1]; Stearoyl = CCCCCCCCCCCCCCCCCC(=O)*; Palmitoyl = CCCCCCCCCCCCCCCC(=O)*; αMeF = C[C@](N)(Cc1ccccc1)C(=O)O; Myristoyl = CCCCCCCCCCCCCC(=O)*; PEG2 = NCCOCCOCCC(=O)O; AEEA = NCCOCCOCC(=O)O; Aib = CC(C)(N)C(=O)O

Molecular target: human GLP-1 receptor (hGLP-1R) (Homo sapiens, UniProt P43220)
Experiment: cAMP production (HTRF) in CHO cells expressing hGLP-1R
Format: cell-based
Parameters: expressed in transfected cells
Details: for % Relative Potency Ratio: Table 6, % GLP-1R activity relative to GLP-1 / % GlucR activity relative to glucagon; for EC50: Table 6, peptides modified at position 17, cAMP in CHO hGLP-1R cells, geometric mean, read-out: hGLP-1R EC50
Description: Cells were re-suspended in assay buffer at a batch-dependent optimized concentration (typically hGLP-1R cells at 1×10^5 cells/mL, hGCGR cells at 2×10^5 cells/mL).
Cells were added to the assay plate using a multidrop dispenser and incubated at room temperature for 30 minutes before measuring the cAMP level using a cAMP dynamic 2 homogeneous time resolved Fluorescence (HTRF) kit (Cisbio Bioassays #62AM4PEJ) following the two-step protocol as per manufacturer's recommendations. In brief, anti-cAMP cryptate (donor fluorophore) and cAMP-d2 (acceptor fluorophore) were made up separately by diluting each 1 in 20 in conjugate and lysis buffer provided in the kit. Anti-CAMP cryptate was added to all wells of the assay plate, followed by cAMP-d2 added to all wells except non-specific binding (NSB) wells (to which conjugate and lysis buffer was added).
Data was transformed to % Delta F as described in the manufacturer's guidelines and analyzed by 4-parameter logistic fit to determine EC50 values.

human GLP-1 receptor (hGLP-1R), sequence (P43220 24-463): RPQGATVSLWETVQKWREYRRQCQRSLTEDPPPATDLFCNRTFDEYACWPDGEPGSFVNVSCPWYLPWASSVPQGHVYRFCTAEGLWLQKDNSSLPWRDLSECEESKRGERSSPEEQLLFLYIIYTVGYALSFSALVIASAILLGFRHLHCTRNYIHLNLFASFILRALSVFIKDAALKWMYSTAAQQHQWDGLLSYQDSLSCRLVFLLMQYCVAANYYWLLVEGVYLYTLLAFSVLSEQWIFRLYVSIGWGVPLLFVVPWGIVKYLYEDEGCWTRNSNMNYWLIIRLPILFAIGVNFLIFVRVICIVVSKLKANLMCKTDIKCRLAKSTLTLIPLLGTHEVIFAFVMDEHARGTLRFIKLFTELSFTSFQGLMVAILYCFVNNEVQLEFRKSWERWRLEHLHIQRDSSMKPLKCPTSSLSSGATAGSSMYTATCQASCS

| SMILES | % Relative Potency Ratio | EC50 |
| --- | --- | --- |
| CCCCCCCCCCCCCCCCCC(=O)N[C@@H](CCC(=O)N[C@@H](CCC(=O)NCCOCCOCCC(=O)NCCOCCOCCC(=O)NCCCC[C@H](NC(=O)[C@H](CO)NC(=O)[C@H](CC(=O)O)NC(=O)[C@H](CC(C)C)NC(=O)[C@](C)(Cc1ccccc1)NC(=O)[C@H](CCCCN)NC(=O)[C@H](CO)NC(=O)[C@@H](NC(=O)[C@H](CC(=O)O)NC(=O)[C@H](CO)NC(=O)[C@@H](NC(=O)[C@](C)(Cc1ccccc1)NC(=O)[C@H](CO)NC(=O)CNC(=O)[C@H](CCC(N)=O)NC(=O)C(C)(C)NC(=O)[C@@H](N)Cc1c[nH]cn1)[C@@H](C)O)C(C)C)C(=O)N[C@H](C(=O)N[C@@H](C)C(=O)N[C@@H](CCC(N)=O)C(=O)N[C@@H](CC(=O)O)C(=O)N[C@@](C)(Cc1ccccc1)C(=O)N[C@H](C(=O)N[C@@H](CCC(=O)O)C(=O)NC(C)(C)C(=O)N[C@@H](CC(C)C)C(=O)N[C@@H](CCC(=O)O)C(=O)N[C@@H](C)C(=O)NCC(=O)NCC(N)=O)C(C)C)C(C)(C)CCNC(=N)N)C(=O)O)C(=O)O [Peptide 74] (H-H[Aib]QGS[αMeF]TSDVSK[αMeF]LDSK([PEG2-PEG2-γGlu-γGlu-Stearoyl])[X1]AQD[αMeF]VE[Aib]LEAGG-NH2; N-terminus assumed) | 11.8 |  |
| CCCCCCCCCCCCCCCCCC(=O)N[C@@H](CCC(=O)N[C@@H](CCC(=O)NCCOCCOCCC(=O)NCCOCCOCCC(=O)NCCCC[C@H](NC(=O)[C@H](CO)NC(=O)[C@H](CC(=O)O)NC(=O)[C@H](CC(C)C)NC(=O)[C@](C)(Cc1ccccc1)NC(=O)[C@H](CCCCN)NC(=O)[C@H](CO)NC(=O)[C@@H](NC(=O)[C@H](CC(=O)O)NC(=O)[C@H](CO)NC(=O)[C@@H](NC(=O)[C@](C)(Cc1ccccc1)NC(=O)[C@H](CO)NC(=O)CNC(=O)[C@H](CCC(N)=O)NC(=O)[C@H](CO)NC(=O)[C@@H](N)Cc1c[nH]cn1)[C@@H](C)O)C(C)C)C(=O)N[C@@H](C)C(=O)N[C@@H](C)C(=O)N[C@@H](CCC(N)=O)C(=O)N[C@@H](CC(=O)O)C(=O)N[C@@](C)(Cc1ccccc1)C(=O)N[C@H](C(=O)N[C@@H](CCC(N)=O)C(=O)NC(C)(C)C(=O)N[C@H](C(=O)N[C@@H](C)C(=O)N[C@@H](CC(N)=O)C(=O)N[C@H](C(N)=O)[C@@H](C)O)[C@@H](C)CC)C(C)C)C(=O)O)C(=O)O [Peptide 82] (H-HSQGS[αMeF]TSDVSK[αMeF]LDSK([PEG2-PEG2-γGlu-γGlu-Stearoyl])AAQD[αMeF]VQ[Aib]IANT-NH2; N-terminus assumed) | 18.3 |  |
| CCCCCCCCCCCCCCCC(=O)N[C@@H](CCC(=O)N[C@@H](CCC(=O)NCCOCCOCCC(=O)NCCOCCOCCC(=O)NCCCC[C@H](NC(=O)[C@H](CO)NC(=O)[C@H](CC(=O)O)NC(=O)[C@H](CC(C)C)NC(=O)[C@](C)(Cc1ccccc1)NC(=O)[C@H](CCCCN)NC(=O)[C@H](CO)NC(=O)[C@@H](NC(=O)[C@H](CC(=O)O)NC(=O)[C@H](CO)NC(=O)[C@@H](NC(=O)[C@](C)(Cc1ccccc1)NC(=O)[C@H](CO)NC(=O)CNC(=O)[C@H](CCC(N)=O)NC(=O)[C@H](CO)NC(=O)[C@@H](N)Cc1c[nH]cn1)[C@@H](C)O)C(C)C)C(=O)N[C@@H](C)C(=O)N[C@@H](C)C(=O)N[C@@H](CCC(N)=O)C(=O)N[C@@H](CC(=O)O)C(=O)N[C@@](C)(Cc1ccccc1)C(=O)N[C@H](C(=O)N[C@@H](CCC(N)=O)C(=O)N[C@H](C(=O)N[C@H](C(=O)N[C@@H](C)C(=O)N[C@@H](CC(N)=O)C(N)=O)[C@@H](C)CC)[C@@H](C)CC)C(C)C)C(=O)O)C(=O)O [Peptide 89] (H-HSQGS[αMeF]TSDVSK[αMeF]LDSK([PEG2-PEG2-γGlu-γGlu-Palmitoyl])AAQD[αMeF]VQIIAN-NH2; N-terminus assumed) | 8.0 |  |

Continued, values first:

| % Relative Potency Ratio | EC50 | SMILES |
| --- | --- | --- |
| 1.2 | 0.00142 nM | CCCCCCCCCCCCCC(=O)N[C@@H](CCC(=O)NCCOCCOCCC(=O)NCCOCCOCCC(=O)NCCCC[C@H](NC(=O)[C@H](CO)NC(=O)[C@H](CC(=O)O)NC(=O)[C@H](CC(C)C)NC(=O)[C@@H](NC(=O)[C@H](CCCCN)NC(=O)[C@H](CO)NC(=O)[C@@H](NC(=O)[C@H](CC(=O)O)NC(=O)[C@H](CO)NC(=O)[C@@H](NC(=O)[C@](C)(Cc1ccccc1)NC(=O)[C@H](CO)NC(=O)CNC(=O)[C@H](CCC(N)=O)NC(=O)[C@H](CO)NC(=O)[C@@H](N)Cc1c[nH]cn1)[C@@H](C)O)C(C)C)[C@@H](C)CC)C(=O)N[C@@H](C)C(=O)N[C@@H](C)C(=O)N[C@@H](CCC(N)=O)C(=O)N[C@@H](CC(=O)O)C(=O)N[C@@](C)(Cc1ccccc1)C(=O)N[C@H](C(=O)N[C@@H](CCC(N)=O)C(=O)NC(C)(C)C(=O)N[C@H](C(=O)N[C@H](C(=O)N[C@@H](CC(N)=O)C(=O)N[C@H](C(N)=O)[C@@H](C)O)[C@@H](C)CC)[C@@H](C)CC)C(C)C)C(=O)O [Peptide 122] (H-HSQGS[αMeF]TSDVSKILDSK([PEG2-PEG2-γGlu-Myristoyl])AAQD[αMeF]VQ[Aib]IINT-NH2; N-terminus assumed) |
| 22.3 |  | CC(C)C[C@H](NC(=O)[C@H](Cc1c[nH]c2ccccc12)NC(=O)[C@H](CCCNC(=N)N)NC(=O)[C@@H](NC(=O)[C@H](Cc1ccccc1)NC(=O)[C@H](CC(=O)O)NC(=O)[C@H](CCCNC(=N)N)NC(=O)[C@H](C)NC(=O)[C@H](CCCNC(=N)N)NC(=O)[C@H](CCCCNC(=O)CC[C@H](NC(=O)CC[C@H](NC(=O)COCCOCCNC(=O)COCCOCCNC(=O)CC[C@H](NC(=O)CC[C@H](NC(=O)CCCCCCCCCCCCCCCCC(=O)O)C(=O)O)C(=O)O)C(=O)O)C(=O)O)NC(=O)[C@H](CO)NC(=O)[C@H](CC(=O)O)NC(=O)[C@H](CC(C)C)NC(=O)[C@](C)(Cc1ccccc1)NC(=O)[C@H](CCCCN)NC(=O)[C@H](CO)NC(=O)[C@@H](NC(=O)[C@H](CC(=O)O)NC(=O)[C@H](CO)NC(=O)[C@@H](NC(=O)[C@H](Cc1ccccc1)NC(=O)[C@@H](NC(=O)CNC(=O)[C@H](CCC(N)=O)NC(=O)C(C)(C)NC(=O)[C@@H](N)Cc1c[nH]cn1)[C@@H](C)O)[C@@H](C)O)C(C)C)C(C)C)C(=O)N[C@@H](CC(C)C)C(=O)N[C@@H](CCC(=O)O)C(=O)NC(C)(C)C(=O)NCC(=O)O [Peptide 136] (H-H[Aib]QGTFTSDVSK[αMeF]LDSK([γGlu-γGlu-AEEA-AEEA-γGlu-γGlu-C18 diacid])RARDFVRWLLE[Aib]G-OH; N-terminus assumed) |
| 30.7 | 0.0452 nM | CC(C)C[C@H](NC(=O)[C@H](Cc1c[nH]c2ccccc12)NC(=O)[C@H](CCCNC(=N)N)NC(=O)[C@@H](NC(=O)[C@H](Cc1ccccc1)NC(=O)[C@H](CC(=O)O)NC(=O)[C@H](CCCNC(=N)N)NC(=O)[C@H](C)NC(=O)[C@H](CCCNC(=N)N)NC(=O)[C@H](CCCCNC(=O)CC[C@H](NC(=O)CC[C@H](NC(=O)COCCOCCNC(=O)COCCOCCNC(=O)CC[C@H](NC(=O)CC[C@H](NC(=O)CCCCCCCCCCCCCCCCC(=O)O)C(=O)O)C(=O)O)C(=O)O)C(=O)O)NC(=O)[C@H](CO)NC(=O)[C@H](CC(=O)O)NC(=O)[C@H](CC(C)C)NC(=O)[C@](C)(Cc1ccccc1)NC(=O)[C@H](CCCCN)NC(=O)[C@H](CO)NC(=O)[C@@H](NC(=O)[C@H](CC(=O)O)NC(=O)[C@H](CO)NC(=O)[C@@H](NC(=O)[C@H](Cc1ccccc1)NC(=O)[C@@H](NC(=O)CNC(=O)[C@H](CCC(N)=O)NC(=O)C(C)(C)NC(=O)[C@@H](N)Cc1c[nH]cn1)[C@@H](C)O)[C@@H](C)O)C(C)C)C(C)C)C(=O)N[C@@H](CC(C)C)C(=O)N[C@@H](CCC(=O)O)C(=O)NC(C)(C)C(=O)NCC(=O)O [Peptide 144] (H-H[Aib]QGTFTSDVSK[αMeF]LDSK([γGlu-γGlu-AEEA-AEEA-γGlu-γGlu-C18 diacid])RARDFVRWLLE[Aib]G-OH; N-terminus assumed) |
| 25.5 |  | CC(C)C[C@H](NC(=O)[C@H](Cc1c[nH]c2ccccc12)NC(=O)[C@H](CCCNC(=N)N)NC(=O)[C@@H](NC(=O)[C@H](Cc1ccccc1)NC(=O)[C@H](CC(=O)O)NC(=O)[C@H](CCC(N)=O)NC(=O)[C@H](C)NC(=O)[C@H](CCCNC(=N)N)NC(=O)[C@H](CCCCNC(=O)COCCOCCNC(=O)COCCOCCNC(=O)CC[C@H](NC(=O)CCCCCCCCCCCCCCCCC(=O)O)C(=O)O)NC(=O)[C@H](CO)NC(=O)[C@H](CC(=O)O)NC(=O)[C@H](CC(C)C)NC(=O)[C@](C)(Cc1ccccc1)NC(=O)[C@H](CCCCN)NC(=O)[C@H](CO)NC(=O)[C@@H](NC(=O)[C@H](CC(=O)O)NC(=O)[C@H](CO)NC(=O)[C@@H](NC(=O)[C@H](Cc1ccccc1)NC(=O)[C@@H](NC(=O)CNC(=O)[C@H](CCC(N)=O)NC(=O)C(C)(C)NC(=O)[C@@H](N)Cc1c[nH]cn1)[C@@H](C)O)[C@@H](C)O)C(C)C)C(C)C)C(=O)N[C@@H](CC(C)C)C(=O)NC(C)(C)C(=O)N[C@H](C(=O)N[C@@H](CCCCN)C(=O)O)[C@@H](C)O [Peptide 177] |
